Reference: patent US11905294B2, “Imidazo[1,5-a]pyrazine derivatives as PI3Kδ inhibitors” (BEIGENE, LTD., priority 2017, dated 2024)

What was measured:
Type in all cases: biochemical
PI3K (p110γ) = PI3K (p110γ) (Homo sapiens, UniProt P48736); assay: PI3Kγ assay (ADP-Glo Kinase Assay); conditions: recombinant enzyme; IC50 (nM) or max inhibition (%) at 0.5 μM
PI3K (p110α/p85α) = PI3K (p110α/p85α) (Homo sapiens, UniProt P42336); assay: PI3Kα assay (ADP-Glo Kinase Assay); conditions: recombinant enzyme; IC50 (nM) or max inhibition (%) at 0.5 μM
PI3K (p110δ/p85α) = PI3K (p110δ/p85α) (Homo sapiens, UniProt O00329); assay: PI3Kδ assay (ADP-Glo Kinase Assay); conditions: recombinant enzyme; IC50 (nM) or max inhibition (%) at 0.5 μM
Outline: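 Recombinant p110δ/p85α with lipid substrate and serially diluted compound, 0.5 hr RT preincubation; ATP-started reaction ran 1 hr at RT. ADP formed read by ADP-Glo luminescence; IC50 from four-parameter logistic fit of residual activity.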

PI3K (p110β/p85α) = PI3K (p110β/p85α) (Homo sapiens, UniProt P42338); assay: PI3Kβ assay (ADP-Glo Kinase Assay); conditions: read-out: Enzyme activity IC50 PI3Kβ
Chain of PI3K (p110β/p85α) (P42338 whole entry): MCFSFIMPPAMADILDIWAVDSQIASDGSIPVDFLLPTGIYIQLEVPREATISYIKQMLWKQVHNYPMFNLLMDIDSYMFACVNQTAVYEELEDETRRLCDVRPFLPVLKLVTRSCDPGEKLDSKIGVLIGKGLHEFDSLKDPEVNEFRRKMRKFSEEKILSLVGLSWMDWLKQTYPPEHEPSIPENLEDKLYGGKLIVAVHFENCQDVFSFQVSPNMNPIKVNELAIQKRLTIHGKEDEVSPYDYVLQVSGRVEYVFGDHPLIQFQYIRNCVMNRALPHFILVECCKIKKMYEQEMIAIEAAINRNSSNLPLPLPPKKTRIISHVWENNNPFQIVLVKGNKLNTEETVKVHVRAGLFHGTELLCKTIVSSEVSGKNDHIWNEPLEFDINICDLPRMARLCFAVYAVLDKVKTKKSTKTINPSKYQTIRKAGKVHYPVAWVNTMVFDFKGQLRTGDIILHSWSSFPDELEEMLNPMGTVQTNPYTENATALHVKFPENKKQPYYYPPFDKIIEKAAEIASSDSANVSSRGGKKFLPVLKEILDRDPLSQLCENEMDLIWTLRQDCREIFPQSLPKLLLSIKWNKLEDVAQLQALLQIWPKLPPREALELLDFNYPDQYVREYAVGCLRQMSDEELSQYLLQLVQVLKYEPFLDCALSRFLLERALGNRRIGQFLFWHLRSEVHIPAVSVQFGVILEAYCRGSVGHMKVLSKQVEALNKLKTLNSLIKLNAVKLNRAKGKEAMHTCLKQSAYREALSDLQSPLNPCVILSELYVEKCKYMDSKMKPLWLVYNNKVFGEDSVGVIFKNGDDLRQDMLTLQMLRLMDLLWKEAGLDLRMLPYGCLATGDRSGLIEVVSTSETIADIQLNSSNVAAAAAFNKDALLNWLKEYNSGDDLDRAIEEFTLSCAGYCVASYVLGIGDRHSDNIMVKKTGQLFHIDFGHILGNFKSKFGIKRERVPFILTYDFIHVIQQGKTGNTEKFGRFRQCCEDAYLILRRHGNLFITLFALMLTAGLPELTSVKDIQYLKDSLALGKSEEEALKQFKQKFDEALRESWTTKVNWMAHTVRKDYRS
Chain of PI3K (p110β/p85α) (P27986 whole entry partner): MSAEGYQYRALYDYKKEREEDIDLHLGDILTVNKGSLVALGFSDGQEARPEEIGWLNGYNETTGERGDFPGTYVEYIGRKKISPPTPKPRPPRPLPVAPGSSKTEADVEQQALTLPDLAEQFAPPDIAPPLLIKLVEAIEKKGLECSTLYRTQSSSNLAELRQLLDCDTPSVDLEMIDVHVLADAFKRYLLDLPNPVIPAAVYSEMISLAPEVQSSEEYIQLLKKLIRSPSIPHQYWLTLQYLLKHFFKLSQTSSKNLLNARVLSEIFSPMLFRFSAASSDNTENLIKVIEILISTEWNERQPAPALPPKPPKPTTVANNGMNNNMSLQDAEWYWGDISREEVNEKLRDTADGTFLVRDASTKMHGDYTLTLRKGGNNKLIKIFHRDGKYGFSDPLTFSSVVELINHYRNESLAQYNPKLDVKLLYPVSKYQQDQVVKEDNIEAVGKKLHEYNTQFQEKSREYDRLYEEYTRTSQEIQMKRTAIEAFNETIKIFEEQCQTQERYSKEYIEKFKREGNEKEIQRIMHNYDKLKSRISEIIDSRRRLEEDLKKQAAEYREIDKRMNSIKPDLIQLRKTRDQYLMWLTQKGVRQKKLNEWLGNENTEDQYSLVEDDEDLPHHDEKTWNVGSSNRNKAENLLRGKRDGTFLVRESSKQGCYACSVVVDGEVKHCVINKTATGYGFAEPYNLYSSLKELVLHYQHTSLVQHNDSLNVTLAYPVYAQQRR

Chain of PI3K (p110γ) (P48736 whole entry): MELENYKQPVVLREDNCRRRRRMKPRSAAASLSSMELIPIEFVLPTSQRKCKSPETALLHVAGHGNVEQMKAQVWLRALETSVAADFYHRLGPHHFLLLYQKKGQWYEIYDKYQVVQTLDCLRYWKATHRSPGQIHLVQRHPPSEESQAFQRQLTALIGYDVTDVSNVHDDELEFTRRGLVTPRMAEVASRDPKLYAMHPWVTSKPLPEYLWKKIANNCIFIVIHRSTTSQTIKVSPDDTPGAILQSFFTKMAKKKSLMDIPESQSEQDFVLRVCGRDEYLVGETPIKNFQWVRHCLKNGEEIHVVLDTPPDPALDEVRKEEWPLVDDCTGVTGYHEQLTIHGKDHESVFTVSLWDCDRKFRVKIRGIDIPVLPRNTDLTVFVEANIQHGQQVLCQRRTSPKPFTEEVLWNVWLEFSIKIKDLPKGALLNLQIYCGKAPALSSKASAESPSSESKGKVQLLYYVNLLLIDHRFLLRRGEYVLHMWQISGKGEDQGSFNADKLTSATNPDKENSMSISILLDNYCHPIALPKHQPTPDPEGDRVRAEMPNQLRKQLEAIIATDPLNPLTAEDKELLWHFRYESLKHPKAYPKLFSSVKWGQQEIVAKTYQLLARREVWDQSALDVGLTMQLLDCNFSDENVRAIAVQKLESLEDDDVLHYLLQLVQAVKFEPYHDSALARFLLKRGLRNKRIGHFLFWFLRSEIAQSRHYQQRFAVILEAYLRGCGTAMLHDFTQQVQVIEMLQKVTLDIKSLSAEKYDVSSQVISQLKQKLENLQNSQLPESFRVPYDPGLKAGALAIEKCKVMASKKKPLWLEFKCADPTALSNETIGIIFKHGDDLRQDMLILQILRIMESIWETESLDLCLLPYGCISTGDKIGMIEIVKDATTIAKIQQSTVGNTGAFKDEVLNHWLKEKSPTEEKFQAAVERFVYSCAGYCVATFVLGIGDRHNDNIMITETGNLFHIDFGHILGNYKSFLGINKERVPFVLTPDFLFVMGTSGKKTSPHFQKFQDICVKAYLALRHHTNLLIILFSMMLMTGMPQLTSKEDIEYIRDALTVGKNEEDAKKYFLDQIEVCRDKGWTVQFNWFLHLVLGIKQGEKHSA
Chain of PI3K (p110δ/p85α) (O00329 whole entry): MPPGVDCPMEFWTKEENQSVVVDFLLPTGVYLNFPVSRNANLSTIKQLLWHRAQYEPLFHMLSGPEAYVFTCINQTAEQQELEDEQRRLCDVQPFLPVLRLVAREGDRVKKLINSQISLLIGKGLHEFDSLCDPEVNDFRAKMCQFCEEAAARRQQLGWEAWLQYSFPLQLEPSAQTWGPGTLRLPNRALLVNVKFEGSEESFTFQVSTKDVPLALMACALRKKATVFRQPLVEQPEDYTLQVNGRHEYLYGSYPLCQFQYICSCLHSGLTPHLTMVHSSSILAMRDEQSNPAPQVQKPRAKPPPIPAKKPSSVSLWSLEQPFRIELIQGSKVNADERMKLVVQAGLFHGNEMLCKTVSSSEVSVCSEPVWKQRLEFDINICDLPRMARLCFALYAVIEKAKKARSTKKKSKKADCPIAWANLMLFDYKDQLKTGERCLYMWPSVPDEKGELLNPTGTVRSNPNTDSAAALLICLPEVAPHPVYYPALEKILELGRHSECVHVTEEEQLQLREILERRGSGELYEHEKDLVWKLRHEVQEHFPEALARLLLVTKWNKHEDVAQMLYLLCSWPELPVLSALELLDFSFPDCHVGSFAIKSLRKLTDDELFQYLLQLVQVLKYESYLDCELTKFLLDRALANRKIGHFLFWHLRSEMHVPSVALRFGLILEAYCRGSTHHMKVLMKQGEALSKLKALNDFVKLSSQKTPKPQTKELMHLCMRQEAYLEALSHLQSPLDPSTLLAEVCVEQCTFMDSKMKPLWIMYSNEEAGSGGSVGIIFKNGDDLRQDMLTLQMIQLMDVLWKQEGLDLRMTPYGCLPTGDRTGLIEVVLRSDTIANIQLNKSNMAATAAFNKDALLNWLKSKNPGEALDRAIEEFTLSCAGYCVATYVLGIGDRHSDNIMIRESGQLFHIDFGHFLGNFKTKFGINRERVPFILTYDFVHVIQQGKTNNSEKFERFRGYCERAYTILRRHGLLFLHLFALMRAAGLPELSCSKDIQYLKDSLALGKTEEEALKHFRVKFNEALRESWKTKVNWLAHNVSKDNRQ
Chain of PI3K (p110δ/p85α) (P27986 whole entry partner): as the sequence (P27986 whole entry partner) above
Chain of PI3K (p110α/p85α) (P42336 whole entry): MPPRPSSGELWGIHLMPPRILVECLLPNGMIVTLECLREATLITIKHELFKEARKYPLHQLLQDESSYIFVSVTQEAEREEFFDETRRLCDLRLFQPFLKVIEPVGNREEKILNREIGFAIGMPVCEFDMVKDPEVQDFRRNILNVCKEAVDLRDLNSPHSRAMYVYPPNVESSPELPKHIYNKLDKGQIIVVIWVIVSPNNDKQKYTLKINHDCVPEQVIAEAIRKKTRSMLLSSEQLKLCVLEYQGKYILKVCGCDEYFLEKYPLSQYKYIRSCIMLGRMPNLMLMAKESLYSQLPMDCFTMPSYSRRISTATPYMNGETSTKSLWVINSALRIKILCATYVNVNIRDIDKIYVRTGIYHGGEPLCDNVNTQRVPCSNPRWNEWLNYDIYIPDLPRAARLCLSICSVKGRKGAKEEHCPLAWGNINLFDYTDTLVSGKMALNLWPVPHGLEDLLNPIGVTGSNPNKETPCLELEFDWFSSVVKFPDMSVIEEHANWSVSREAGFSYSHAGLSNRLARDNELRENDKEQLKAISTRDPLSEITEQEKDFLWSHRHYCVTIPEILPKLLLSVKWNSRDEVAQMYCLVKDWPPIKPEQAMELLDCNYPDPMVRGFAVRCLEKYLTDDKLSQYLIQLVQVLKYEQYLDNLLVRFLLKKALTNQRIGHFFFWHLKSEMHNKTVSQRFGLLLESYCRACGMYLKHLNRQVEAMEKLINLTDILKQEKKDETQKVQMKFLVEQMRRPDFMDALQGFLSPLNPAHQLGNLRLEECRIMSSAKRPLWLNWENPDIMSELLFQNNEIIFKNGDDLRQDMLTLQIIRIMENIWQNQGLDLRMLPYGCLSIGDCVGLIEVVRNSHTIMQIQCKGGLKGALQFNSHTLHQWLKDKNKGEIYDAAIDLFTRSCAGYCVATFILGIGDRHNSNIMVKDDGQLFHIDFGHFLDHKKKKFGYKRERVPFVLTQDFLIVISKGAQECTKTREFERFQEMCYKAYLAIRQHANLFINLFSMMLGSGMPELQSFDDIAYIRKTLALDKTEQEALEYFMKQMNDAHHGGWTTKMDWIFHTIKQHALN
Chain of PI3K (p110α/p85α) (P27986 whole entry partner): as the sequence (P27986 whole entry partner) above

Cc1nc([C@@H](C)c2cc(Cl)c(F)c(C(=O)N[C@@H](C)c3ccnc(C(F)(F)F)c3)c2OC(C)C)n2ccnc(N)c12 [Compound 59A, 3-((S)-1-(8-amino-1-methylimidazo[1,5-a]pyrazin-3-yl)ethyl)-5-chloro-6-fluoro-2-isopropoxy-N-((S)-1-(2-(trifluoromethyl)pyridin-4-yl)ethyl)benzamide]
IC50 (PI3K (p110γ)): 1200 nM
IC50 (PI3K (p110α/p85α)): 8300 nM
IC50 (PI3K (p110δ/p85α)): 2.1 nM
IC50 (PI3K (p110β/p85α)): 14 µM

Cc1nc(C(C)c2cc(Cl)c(F)c(C(=O)Nc3ccccc3)c2OC(C)C)n2ccnc(N)c12 (centres unmarked) [Compound 12, 3-(1-(8-amino-1-methylimidazo[1,5-a]pyrazin-3-yl)ethyl)-5-chloro-6-fluoro-2-isopropoxy-N-phenylbenzamide]
IC50 (PI3K (p110γ)): 14000 nM
IC50 (PI3K (p110α/p85α)): > 50000 nM
IC50 (PI3K (p110δ/p85α)): 3.7 nM
IC50 (PI3K (p110β/p85α)): > 50 µM

COC[C@@H]1CCCN1C(=O)c1c(F)c(Cl)cc([C@H](C)c2nc(C)c3c(N)nccn23)c1OC(C)C [Compound 17, (3-((S)-1-(8-amino-1-methylimidazo[1,5-a]pyrazin-3-yl)ethyl)-5-chloro-6-fluoro-2-isopropoxyphenyl)((S)-2-(methoxymethyl)pyrrolidin-1-yl)methanone]
IC50 (PI3K (p110γ)): 14000 nM
IC50 (PI3K (p110α/p85α)): 77000 nM
IC50 (PI3K (p110δ/p85α)): 3.8 nM
IC50 (PI3K (p110β/p85α)): 72 µM

Cc1nc([C@@H](C)c2cc(Cl)c(F)c(C(=O)NC3(CN4CCN(CC5CC5)CC4)CC3)c2OC(C)C)n2ccnc(N)c12 [Compound 56, (S)-3-(1-(8-amino-1-methylimidazo[1,5-a]pyrazin-3-yl)ethyl)-5-chloro-N-(1-((4-(cyclopropylmethyl)piperazin-1-yl)methyl)cyclopropyl)-6-fluoro-2-isopropoxybenzamide]
IC50 (PI3K (p110γ)): 4500 nM
IC50 (PI3K (p110α/p85α)): 28000 nM
IC50 (PI3K (p110δ/p85α)): 1.9 nM
IC50 (PI3K (p110β/p85α)): 44 µM

Cc1nc([C@@H](C)c2cc(Cl)c(F)c(C(=O)N[C@@H](C)c3ccccc3)c2OC(C)C)n2ccnc(N)c12 [Compound 21, 3-((S)-1-(8-amino-1-methylimidazo[1,5-a]pyrazin-3-yl)ethyl)-5-chloro-6-fluoro-2-isopropoxy-N-((S)-1-phenylethyl)benzamide]
IC50 (PI3K (p110γ)): 3900 nM
IC50 (PI3K (p110α/p85α)): 33000 nM
IC50 (PI3K (p110δ/p85α)): 1.4 nM
IC50 (PI3K (p110β/p85α)): 28 µM

Cc1nc([C@@H](C)c2cc(Cl)c(F)c(C(=O)NC[C@H]3CCCO3)c2OC(C)C)n2ccnc(N)c12 [Compound 31, 3-((S)-1-(8-amino-1-methylimidazo[1,5-a]pyrazin-3-yl)ethyl)-5-chloro-6-fluoro-2-isopropoxy-N-(((R)-tetrahydrofuran-2-yl)methyl)benzamide]
IC50 (PI3K (p110γ)): 6200 nM
IC50 (PI3K (p110α/p85α)): 25000 nM
IC50 (PI3K (p110δ/p85α)): 3.1 nM
IC50 (PI3K (p110β/p85α)): 16 µM

CCCNC(=O)c1c(F)c(Cl)cc([C@H](C)c2nc(C)c3c(N)nccn23)c1OC(C)C [Compound 41, (S)-3-(1-(8-amino-1-methylimidazo[1,5-a]pyrazin-3-yl)ethyl)-5-chloro-6-fluoro-2-isopropoxy-N-propylbenzamide]
IC50 (PI3K (p110γ)): 5500 nM
IC50 (PI3K (p110α/p85α)): 20000 nM
IC50 (PI3K (p110δ/p85α)): 0.99 nM
IC50 (PI3K (p110β/p85α)): 4.9 µM

Cc1nc([C@@H](C)c2cc(Cl)c(F)c(C(=O)N[C@H]3CC[C@H](O)C3)c2OC(C)C)n2ccnc(N)c12 [Compound 71, 3-((S)-1-(8-amino-1-methylimidazo[1,5-a]pyrazin-3-yl)ethyl)-5-chloro-6-fluoro-N-((1S,3S)-3-hydroxycyclopentyl)-2-isopropoxybenzamide]
IC50 (PI3K (p110γ)): 3400 nM
IC50 (PI3K (p110α/p85α)): 14000 nM
IC50 (PI3K (p110δ/p85α)): 1.4 nM
IC50 (PI3K (p110β/p85α)): 13 µM

CO[C@H]1CCN(C(=O)c2c(F)c(Cl)cc([C@H](C)c3nc(C)c4c(N)nccn34)c2OC(C)C)C1 [Compound 70, (3-((S)-1-(8-amino-1-methylimidazo[1,5-a]pyrazin-3-yl)ethyl)-5-chloro-6-fluoro-2-isopropoxyphenyl)((S)-3-methoxypyrrolidin-1-yl)methanone]
IC50 (PI3K (p110γ)): 6700 nM
IC50 (PI3K (p110α/p85α)): 41000 nM
IC50 (PI3K (p110δ/p85α)): 1.9 nM
IC50 (PI3K (p110β/p85α)): > 50 µM

Cc1nc([C@@H](C)c2cc(Cl)c(F)c(C(=O)N[C@H]3C[C@H](O)C3)c2OC(C)C)n2ccnc(N)c12 [Compound 61, 3-((S)-1-(8-amino-1-methylimidazo[1,5-a]pyrazin-3-yl)ethyl)-5-chloro-6-fluoro-N-((trans)-3-hydroxycyclobutyl)-2-isopropoxybenzamide]
IC50 (PI3K (p110γ)): 4500 nM
IC50 (PI3K (p110α/p85α)): 21000 nM
IC50 (PI3K (p110δ/p85α)): 1.4 nM
IC50 (PI3K (p110β/p85α)): 12 µM

Cc1nc([C@@H](C)c2cc(Cl)c(F)c(C(=O)NCc3ccccn3)c2OC(C)C)n2ccnc(N)c12 [Compound 33, (S)-3-(1-(8-amino-1-methylimidazo[1,5-a]pyrazin-3-yl)ethyl)-5-chloro-6-fluoro-2-isopropoxy-N-(pyridin-2-ylmethyl)benzamide]
IC50 (PI3K (p110γ)): 2200 nM
IC50 (PI3K (p110α/p85α)): 9300 nM
IC50 (PI3K (p110δ/p85α)): 1.3 nM
IC50 (PI3K (p110β/p85α)): 13 µM

Cc1nc(C(C)c2cc(Cl)c(F)c(C(=O)N3CC(O)C3)c2OC(C)C)n2ccnc(N)c12 (centres unmarked) [Compound 3, (3-(1-(8-amino-1-methylimidazo[1,5-a]pyrazin-3-yl)ethyl)-5-chloro-6-fluoro-2-isopropoxyphenyl)(3-hydroxyazetidin-1-yl)methanone]
IC50 (PI3K (p110γ)): 19000 nM
IC50 (PI3K (p110α/p85α)): 49000 nM
IC50 (PI3K (p110δ/p85α)): 6.3 nM
IC50 (PI3K (p110β/p85α)): 34 µM

Cc1nc([C@@H](C)c2cc(Cl)c(F)c(C(=O)N[C@H]3CCCC[C@@H]3O)c2OC(C)C)n2ccnc(N)c12 [Compound 46, 3((S)-1-(8-amino-1-methylimidazo[1,5-a]pyrazin-3-yl)ethyl)-5-chloro-6-fluoro-N-((1S,2S)-2-hydroxycyclohexyl)-2-isopropoxybenzamide]
IC50 (PI3K (p110γ)): 2100 nM
IC50 (PI3K (p110α/p85α)): 9700 nM
IC50 (PI3K (p110δ/p85α)): 0.94 nM
IC50 (PI3K (p110β/p85α)): 39 µM

Cc1nc(C(C)c2cc(Cl)c(F)c(C(=O)N3CCOCC3)c2OC(C)C)n2ccnc(N)c12 (single isomer, unassigned) [Compound 4A]
IC50 (PI3K (p110γ)): 2000 nM
IC50 (PI3K (p110α/p85α)): 13000 nM
IC50 (PI3K (p110δ/p85α)): 1 nM
IC50 (PI3K (p110β/p85α)): 11 µM

Cc1nc([C@@H](C)c2cc(Cl)c(F)c(C(=O)N[C@]3(C)C[C@H](O)C3)c2OC(C)C)n2ccnc(N)c12 [Compound 38, 3-((S)-1-(8-amino-1-methylimidazo[1,5-a]pyrazin-3-yl)ethyl)-5-chloro-6-fluoro-2-isopropoxy-N-((1S,3R)-3-hydroxy-1-methylcyclobutyl)benzamide]
IC50 (PI3K (p110γ)): 3200 nM
IC50 (PI3K (p110α/p85α)): 6100 nM
IC50 (PI3K (p110δ/p85α)): 1.4 nM
IC50 (PI3K (p110β/p85α)): 25 µM

Cc1nc(C(C)c2cc(Cl)c(F)c(C(=O)N3CCC(O)CC3)c2OC(C)C)n2ccnc(N)c12 (centres unmarked) [Compound 7, (3-(1-(8-amino-1-methylimidazo[1,5-a]pyrazin-3-yl)ethyl)-5-chloro-6-fluoro-2-isopropoxyphenyl)(4-hydroxypiperidin-1-yl)methanone]
IC50 (PI3K (p110γ)): 17000 nM
IC50 (PI3K (p110α/p85α)): > 50000 nM
IC50 (PI3K (p110δ/p85α)): 6 nM
IC50 (PI3K (p110β/p85α)): > 50 µM

Cc1nc([C@@H](C)c2cc(Cl)c(F)c(C(=O)NCC3(O)COC3)c2OC(C)C)n2ccnc(N)c12 [Compound 55, (S)-3-(1-(8-amino-1-methylimidazo[1,5-a]pyrazin-3-yl)ethyl)-5-chloro-6-fluoro-N-((3-hydroxyoxetan-3-yl)methyl)-2-isopropoxybenzamide]
IC50 (PI3K (p110γ)): 2200 nM
IC50 (PI3K (p110α/p85α)): 13000 nM
IC50 (PI3K (p110δ/p85α)): 1.8 nM
IC50 (PI3K (p110β/p85α)): 11 µM

Cc1nc([C@@H](C)c2cc(Cl)c(F)c(C(=O)N[C@H]3C[C@@H](O)C3)c2OC(C)C)n2ccnc(N)c12 [Compound 63, 3-((S)-1-(8-amino-1-methylimidazo[1,5-a]pyrazin-3-yl)ethyl)-5-chloro-6-fluoro-N-((cis)-3-hydroxycyclobutyl)-2-isopropoxybenzamide]
IC50 (PI3K (p110γ)): 4200 nM
IC50 (PI3K (p110α/p85α)): 38000 nM
IC50 (PI3K (p110δ/p85α)): 1.1 nM
IC50 (PI3K (p110β/p85α)): 7.4 µM

Cc1nc([C@@H](C)c2cc(Cl)c(F)c(C(=O)N[C@@H]3CCCOC3)c2OC(C)C)n2ccnc(N)c12 [Compound 44, 3-((S)-1-(8-amino-1-methylimidazo[1,5-a]pyrazin-3-yl)ethyl)-5-chloro-6-fluoro-2-isopropoxy-N-((R)-tetrahydro-2H-pyran-3-yl)benzamide]
IC50 (PI3K (p110γ)): 5000 nM
IC50 (PI3K (p110α/p85α)): 20000 nM
IC50 (PI3K (p110δ/p85α)): 0.74 nM
IC50 (PI3K (p110β/p85α)): 30 µM

Cc1nc([C@@H](C)c2cc(Cl)c(F)c(C(=O)NCC3CCOCC3)c2OC(C)C)n2ccnc(N)c12 [Compound 51, (S)-3-(1-(8-amino-1-methylimidazo[1,5-a]pyrazin-3-yl)ethyl)-5-chloro-6-fluoro-2-isopropoxy-N-((tetrahydro-2H-pyran-4-yl)methyl)benzamide]
IC50 (PI3K (p110γ)): 4500 nM
IC50 (PI3K (p110α/p85α)): 27000 nM
IC50 (PI3K (p110δ/p85α)): 0.97 nM
IC50 (PI3K (p110β/p85α)): 6.4 µM
